The values below come from patent publication US11053230B2, “3-hydroxy-imidazolidin-4-one compounds as inhibitors of indoleamine 2,3-dioxygenase” (Netherlands Translational Research Center B.V., priority 2017, dated 2021).

Several values for one entry are separate records, joined by “and”; a condition that tells them apart may be missing. Equal values may be shown once.

Data set [1] concerns Leishmania major. The following applies: in vivo; cited from earlier work.
Data set [2] concerns IDO1 expressed in mouse tumor cells. The note with it: pre-immunized mice; cited from earlier work.
Data set [3] relates to influenza virus. The note with it: influenza virus-infected mice; cited from earlier work.
For data set [4], the system named is melanoma and glioblastoma. The note with it: mouse tumor models for melanoma and glioblastoma; cited from earlier work.
In data set [5] the test system is lung carcinoma. The note with it: syngeneic mouse lung carcinoma model and transgenic mouse model; cited from earlier work.
Data set [6] deals with T1, IDO1 (Homo sapiens, UniProt P14902).
T1 construct: Recombinant full-length IDO1 (Seegers, N., et al.) and all other assay components were diluted in IDO1 reaction buffer; made in house
The data set is described as follows: Biochemical IDO1 assay (NFK GreenScreen). The following applies: for IC50: NFK GreenScreen, 25 nM IDO1, 100 μM L-tryptophan, read-out: IC50, inhibitory potency on IDO1; for relative activity of the separated isomers: stated in the synthesis examples, assay not named. An outline of the steps: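 Recombinant full-length IDO1 in 50 mM NaH2PO4 pH 7.0 with 0.05% Tween-20 and 1% glycerol converted 100 μM L-tryptophan (final) over 60 min at room temperature with compound, 0.3% DMSO.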

For data set [7], the system named is colon cancer. The note with it: mouse model for colon cancer; cited from earlier work.
The target of data set [8] is tryptophan 2,3-dioxygenase (TDO) (Homo sapiens, UniProt P48775). The note with it: biochemical assays; cited from earlier work.
Data set [9] relates to melanoma. The note with it: mouse model for melanoma; cited from earlier work.
Data set [10] concerns plasma kynurenine levels. The following applies: phase 1, advanced solid malignancies, all doses; cited from earlier work.
The conditions of data set [11]: randomized, open-label, phase 2, ovarian cancer patients; cited from earlier work.

T1 sequence (P14902 whole entry): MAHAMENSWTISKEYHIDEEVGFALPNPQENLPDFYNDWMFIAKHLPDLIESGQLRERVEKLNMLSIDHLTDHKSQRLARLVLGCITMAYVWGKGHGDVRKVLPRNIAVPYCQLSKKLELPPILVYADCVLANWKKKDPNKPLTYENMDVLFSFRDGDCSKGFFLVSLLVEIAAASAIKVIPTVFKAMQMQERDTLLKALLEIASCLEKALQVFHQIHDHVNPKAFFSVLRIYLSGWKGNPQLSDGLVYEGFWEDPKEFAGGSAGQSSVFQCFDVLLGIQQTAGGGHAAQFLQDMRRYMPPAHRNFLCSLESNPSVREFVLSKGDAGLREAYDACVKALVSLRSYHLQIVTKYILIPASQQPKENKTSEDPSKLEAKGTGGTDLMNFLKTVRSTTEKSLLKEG
Sequence of tryptophan 2,3-dioxygenase (TDO) (P48775 whole entry, species assumed): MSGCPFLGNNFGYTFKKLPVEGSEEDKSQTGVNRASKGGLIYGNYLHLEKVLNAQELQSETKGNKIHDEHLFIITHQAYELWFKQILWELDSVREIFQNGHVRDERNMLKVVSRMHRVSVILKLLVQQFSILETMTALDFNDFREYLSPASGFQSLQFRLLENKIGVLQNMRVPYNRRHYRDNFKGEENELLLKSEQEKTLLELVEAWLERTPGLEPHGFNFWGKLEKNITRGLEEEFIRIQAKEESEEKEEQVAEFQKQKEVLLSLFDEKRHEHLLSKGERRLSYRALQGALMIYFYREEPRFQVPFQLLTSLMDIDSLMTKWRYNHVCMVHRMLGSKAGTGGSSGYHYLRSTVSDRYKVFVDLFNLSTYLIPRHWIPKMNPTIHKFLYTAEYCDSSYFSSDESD

Regarding `Cn1cc(C[C@H](N)C(=O)O)c2ccccc21` [Example 1-MT, 1-methyl-L-tryptophan], in data set [1], the parasite burden result is “reduced the parasite burden”. In addition, the “reversal of IDO1-mediated prevention of tumor cell rejection” value in data set [2] was “this effect could be reverted”. The “T cell response against the virus” value in data set [3] is given as “enhanced T cell response against the virus”. In addition, the “efficacy of PD-1 and CTLA4 antibodies in combination” value in data set [4] is listed as “increased the efficacy of antibodies”. Besides, in data set [5], the “efficacy of a cancer vaccine in combination” value is on record as “increased the efficacy of a cancer vaccine”.

The term IC50 denotes the concentration that gives 50% inhibition. Take `Cc1ccc(F)c(C(=O)N2CC(=O)N(O)C2c2csc(Br)c2)c1F` (centres unmarked) [Example 102, 2-(5-Bromo-3-thienyl)-1-(2,6-difluoro-3-methyl-benzoyl)-3-hydroxy-imidazolidin-4-one]: the IC50 in [6] was at most 1000 nM.

With `O=C1CN(C(=O)c2ccccc2F)C(c2cc(Br)cs2)N1O` (centres unmarked) [Example 9, 2-(4-Bromo-2-thienyl)-1-(2-fluorobenzoyl)-3-hydroxy-imidazolidin-4-one], the IC50 in data set [6] is at most 1000 nM.

For `Nc1nonc1C(=NO)Nc1ccc(F)c(Cl)c1` [compound 51, 4-amino-N-(3-chloro-4-fluorophenyl)-N′-hydroxy-1,2,5-oxadiazole-3-carboximidamide], the tumor growth entry in data set [7] and in data set [9] was “reduction of tumor growth” throughout. Besides, in [8], the “inhibition of TDO activity” value is “inhibit the activity of tryptophan 2,3-dioxygenase (TDO)”.

For the compound `O=C1CN(C(=O)c2ccccc2C(F)(F)F)C(c2cc(Br)cs2)N1O` (centres unmarked) [Example 56, 2-(4-Bromo-2-thienyl)-3-hydroxy-1-[2-(trifluoromethyl)benzoyl]imidazolidin-4-one], in data set [6], the IC50 was ≤ 5000 nM and 1000 to 5000 nM.

Take `NS(=O)(=O)NCCNc1nonc1C(=NO)Nc1ccc(F)c(Br)c1` [epacadostat]: the plasma kynurenine levels result in data set [10] is “significant dose-dependent reductions”. Also, the tumor growth entry in data set [7] is “further reduction of tumor growth”. Further, in data set [11], the tolerability entry is recorded as “generally well tolerated”.

`CS(=O)(=O)Nc1ccc(F)c(C(=O)N2CC(=O)N(O)C2c2cc(Br)cs2)c1F` (centres unmarked) [Example 107, N-[3-[2-(4-bromo-2-thienyl)-3-hydroxy-4-oxo-imidazolidine-1-carbonyl]-2,4-difluoro-phenyl]methanesulfonamide]: the IC50 in [6] was at most 1000 nM.

For the compound `O=C1CN(C(=O)c2c(F)cccc2F)C(c2cc(Br)c(F)s2)N1O` (centres unmarked) [Example 37, 2-(4-Bromo-5-fluoro-2-thienyl)-1-(2,6-difluorobenzoyl)-3-hydroxy-imidazolidin-4-one], the IC50 in data set [6] was at most 1000 nM.

On to `C[C@@H](c1ccccc1)N1CC(=O)N(O)C1c1csc(Br)c1` (single isomer, unassigned) [Example 121b], for which, in [6], the IC50 is at most 1000 nM and the “relative activity of the separated isomers” value (“relative activity” below) is “most active isomer”.

On to `O=C1CN(C(=O)c2c(F)cc(-c3cccnc3)cc2F)C(c2cc(Br)cs2)N1O` (centres unmarked) [Example 88, 2-(4-Bromo-2-thienyl)-1-[2,6-difluoro-4-(3-pyridyl)benzoyl]-3-hydroxy-imidazolidin-4-one], for which the IC50 in data set [6] is at most 1000 nM.

As to `Cc1cc(F)c(C(=O)N2CC(=O)N(O)C2c2cc(Br)cs2)c(F)c1` (centres unmarked) [Example 84, 2-(4-Bromo-2-thienyl)-1-(2,6-difluoro-4-methyl-benzoyl)-3-hydroxy-imidazolidin-4-one], in data set [6], the IC50 is at most 1000 nM.

Turning to `O=C1CN(C(=O)c2c(F)ccc(-c3ccccc3)c2F)C(c2cc(Br)cs2)N1O` (centres unmarked) [Example 122, 2-(4-Bromo-2-thienyl)-1-(2,6-difluoro-3-phenyl-benzoyl)-3-hydroxy-imidazolidin-4-one], the IC50 in [6] was at most 1000 nM.

Turning to `N#Cc1csc(C2N(O)C(=O)CN2C(=O)c2ccccc2F)c1` (centres unmarked) [Example 31, 5-[1-(2-Fluorobenzoyl)-3-hydroxy-4-oxo-imidazolidin-2-yl]thiophene-3-carbonitrile], the IC50 in [6] was ≤ 5000 nM and 1000 to 5000 nM.

In the case of `O=C1CN(C(=O)c2c(F)cccc2F)C(c2cc(Br)c(Cl)s2)N1O` (centres unmarked) [Example 115, 2-(4-Bromo-5-chloro-2-thienyl)-1-(2,6-difluorobenzoyl)-3-hydroxy-imidazolidin-4-one], the half-maximal inhibitory concentration (IC50) in data set [6] was at most 1000 nM.

`Cc1sc(C2N(O)C(=O)CN2C(=O)c2c(F)cccc2F)cc1Br` (centres unmarked) [Example 113, 2-(4-bromo-5-methyl-2-thienyl)-1-(2,6-difluorobenzoyl)-3-hydroxy-imidazolidin-4-one]: the IC50 in data set [6] is at most 1000 nM.

Turning to `O=C1CN(C(=O)c2ccc(Cc3ccccc3)cc2)C(c2cc(Br)cs2)N1O` (centres unmarked) [Example 53, 1-(4-Benzylbenzoyl)-2-(4-bromo-2-thienyl)-3-hydroxy-imidazolidin-4-one], the IC50 in data set [6] was ≤ 5000 nM and 1000 to 5000 nM.

As for `O=C1CN(C(=O)c2c(F)cc(C#CC3CC3)cc2F)C(c2cc(Br)cs2)N1O` (single isomer, unassigned) [Example 47b, 2-(4-Bromo-2-thienyl)-1-[4-(2-cyclopropylethynyl)-2,6-difluoro-benzoyl]-3-hydroxy-imidazolidin-4-one], in data set [6], the IC50 is at most 1000 nM and the “relative activity” value is “most active isomer”.

Take `O=C1CN(C(=O)c2c(F)cccc2F)C(c2ccc(Br)s2)N1O` (single isomer, unassigned) [Example 49b, 2-(5-Bromo-2-thienyl)-1-(2,6-difluorobenzoyl)-3-hydroxy-imidazolidin-4-one]: in data set [6], the IC50 was at most 1000 nM and the “relative activity” value was “most active isomer”.

With `O=C1CN(C(=O)c2c(Cl)cccc2Cl)C(c2cc(Br)cs2)N1O` (centres unmarked) [Example 10, 2-(4-Bromo-2-thienyl)-1-(2,6-dichlorobenzoyl)-3-hydroxy-imidazolidin-4-one], the IC50 in [6] was ≤ 5000 nM and 1000 to 5000 nM.

`O=C1CN(C(=O)c2c(F)cccc2F)C(c2cc(Br)c(F)s2)N1O` (single isomer, unassigned) [Example 110a, 2-(4-Bromo-5-fluoro-2-thienyl)-1-(2,6-difluorobenzoyl)-3-hydroxy-imidazolidin-4-one]: the “relative activity” value in data set [6] is listed as “most active isomer”.

Turning to `O=C1CN(C(=O)c2c(F)cccc2F)C(c2csc(Br)c2)N1O` (centres unmarked) [Example 28, 2-(5-Bromo-3-thienyl)-1-(2,6-difluorobenzoyl)-3-hydroxy-imidazolidin-4-one], in data set [6], the IC50 is at most 1000 nM.

For `C[C@@H](c1ccccc1)N1CC(=O)N(O)C1c1cc(I)cs1` (single isomer, unassigned) [Example 119b], in data set [6], the IC50 was at most 1000 nM and the “relative activity” value is on record as “most active isomer”.

Regarding `O=C1CN(C(=O)c2ccncc2F)C(c2cc(Br)cs2)N1O` (centres unmarked) [Example 73, 2-(4-Bromo-2-thienyl)-1-(3-fluoropyridine-4-carbonyl)-3-hydroxy-imidazolidin-4-one], the IC50 in data set [6] was at most 1000 nM.

With `O=C1CN(C(=O)c2c(F)cc(C3CC3)cc2F)C(c2cc(Br)cs2)N1O` (centres unmarked) [Example 82, 2-(4-Bromo-2-thienyl)-1-(4-cyclopropyl-2,6-difluoro-benzoyl)-3-hydroxy-imidazolidin-4-one], in data set [6], the IC50 is at most 1000 nM.

As for `C[C@@H](c1ccccc1)N1CC(=O)N(O)C1c1ccc(Br)s1` (single isomer, unassigned) [Example 120b], in [6], the IC50 was at most 1000 nM and the “relative activity” value is listed as “most active isomer”.

Regarding `NS(=O)(=O)N1CCC(C(=O)N2CC(=O)N(O)C2c2cc(Br)cs2)CC1` (centres unmarked) [Example 108, 4-[2-(4-Bromo-2-thienyl)-3-hydroxy-4-oxo-imidazolidine-1-carbonyl]piperidine-1-sulfonamide], the IC50 in data set [6] is ≤ 5000 nM and 1000 to 5000 nM.

Turning to `O=C1CN(C(=O)c2c(F)ccc(-c3ccc4ccccc4c3)c2F)C(c2cc(Br)cs2)N1O` (centres unmarked) [Example 135, 2-(4-Bromo-2-thienyl)-1-[2,6-difluoro-3-(2-naphthyl)benzoyl]-3-hydroxy-imidazolidin-4-one], in data set [6], the IC50 was at most 1000 nM.

Turning to `O=C1CN(C(=O)c2c(F)cccc2F)C(c2cc(I)cs2)N1O` (centres unmarked) [Example 36, 1-(2,6-Difluorobenzoyl)-3-hydroxy-2-(4-iodo-2-thienyl)imidazolidin-4-one], the IC50 in data set [6] was at most 1000 nM.
